Reference: ChEMBL document CHEMBL1140223, “Novel multifunctional acyloxyalkyl ester prodrugs of 5-aminolevulinic acid display improved anticancer activity independent and dependent on photoactivation” (J Med Chem, 2008)
pIC50: −log10 of the molar value. Calls of active or inactive are those of the source. No cut-off for these calls is given here.

Assays:
U-251 [1] = assay: Induction of necrosis in human U251 cells assessed as necrotic cells at 100 uM after 48 hrs using annexin-V FITC and PI staining by flow cytometry; type: functional
U-251 [2] = assay: Induction of apoptosis in human U251 cells assessed as late apoptotic cells at 100 uM after 48 hrs using annexin-V FITC and PI staining by flow cytometry in presence of Z-Asp-2,6-dichlorobenzoyloxymethylketone; type: functional
U-251 [3] = assay: Induction of apoptosis in human U251 cells assessed as early apoptotic cells at 100 uM after 48 hrs using annexin-V FITC and PI staining by flow cytometry; type: functional
U-251 [4] = assay: Induction of histone H4 hyperacetylation in human U251 cells at 100 uM after 4 hrs by Western blot relative to control; type: functional
U-251 [5] = assay: Induction of apoptosis in human U251 cells assessed as mitochondrial membrane potential dissipation at 100 uM after 24 hrs using JC1 dye by FACS relative to control; type: functional
U-251 [6] = assay: Induction of apoptosis in human U251 cells assessed as early apoptotic cells at 100 uM after 48 hrs using annexin-V FITC and PI staining by flow cytometry in presence of Z-Asp-2,6-dichlorobenzoyloxymethylketone; type: functional
U-251 [7] = assay: Induction of apoptosis in human U251 cells assessed as viable cells at 100 uM after 48 hrs using annexin-V FITC and PI staining by flow cytometry; type: functional; details: U-251, 48 h, read-out: Activity
U-251 [8] = assay: Cytotoxicity against human U251 cells assessed as ROS production by Hoechst test in presence of N-acetyl-L-cysteine; type: functional, cell-based
U-251 [9] = assay: Induction of apoptosis in human U251 cells assessed as viable cells at 100 uM after 48 hrs using annexin-V FITC and PI staining by flow cytometry in presence of Z-Asp-2,6-dichlorobenzoyloxymethylketone; type: functional; details: U-251, 48 h, read-out: Activity
MCF7 = assay: Cytotoxicity against human MCF7 cells after 72 hrs by Hoechst test; type: functional, cell-based; details: MCF7, 72 h
U-251 [10] = assay: Cytotoxicity against human U251 cells after 72 hrs by Hoechst test; type: functional, cell-based; details: U-251, 72 h
U-251 [11] = assay: Increase in ROS production in human U251 cells at 50 uM after 4 hrs by FACS flow cytometry in presence of N-acetyl-L-cysteine; type: functional, cell-based
U-251 [12] = assay: Induction of apoptosis in human U251 cells assessed as viable cells at 100 uM after 48 hrs using annexin-V FITC and PI staining by flow cytometry in presence of Ac-LEHD-CHO; type: functional; details: U-251, 48 h, read-out: Activity
U-251 [13] = assay: Induction of apoptosis in human U251 cells assessed as increase in cleaved caspase 3 level after 24 hrs by Western blot; type: functional, cell-based
U-251 [14] = assay: Induction of apoptosis in human U251 cells assessed as late apoptotic cells at 100 uM after 48 hrs using annexin-V FITC and PI staining by flow cytometry in presence of Ac-LEHD-CHO; type: functional
U-251 [15] = assay: Induction of apoptosis in human U251 cells assessed as increase in full length caspase 8 level after 24 hrs by Western blot; type: functional, cell-based
[16] = Cytotoxicity against human MCF7/DX cells after 72 hrs by Hoechst test; type: functional, cell-based
U-251 [17] = assay: Induction of apoptosis in human U251 cells assessed as early apoptotic cells at 100 uM after 48 hrs using annexin-V FITC and PI staining by flow cytometry in presence of Ac-LEHD-CHO; type: functional
U-251 [18] = assay: Inhibition of 26S proteasome activity in human U251 cells at 100 uM after 48 hrs relative to control; type: cell-based; details: values are per cent of control
U-251 [19] = assay: Increase in heme level in human U251 cells assessed as porphobilinogen deaminase level at 100 uM after 2 hrs by Western blot relative to control; type: functional
U-251 [20] = assay: Increase in heme level in human U251 cells assessed as porphobilinogen deaminase level at 100 uM after 2 hrs by Western blot in presence of cycloheximide; type: functional, cell-based
U-251 [21] = assay: Induction of necrosis in human U251 cells assessed as necrotic cells at 100 uM after 48 hrs using annexin-V FITC and PI staining by flow cytometry in presence of Ac-LEHD-CHO; type: functional
U-251 [22] = assay: Induction of apoptosis in human U251 cells assessed as late apoptotic cells at 100 uM after 48 hrs using annexin-V FITC and PI staining by flow cytometry; type: functional
U-251 [23] = assay: Induction of apoptosis in human U251 cells assessed as increase in cleaved caspase 9 level after 24 hrs by Western blot; type: functional, cell-based
U-251 [24] = assay: Inhibition of 26S proteasome activity in human U251 cells at 100 uM after 48 hrs in presence of N-acetyl-L-cysteine relative to control; type: cell-based; details: values are per cent of control
HL-60 = assay: Cytotoxicity against human HL60 cells after 72 hrs by MTT assay; type: functional, cell-based; details: HL-60, 72 h
U-251 [25] = assay: Induction of necrosis in human U251 cells assessed as necrotic cells at 100 uM after 48 hrs using annexin-V FITC and PI staining by flow cytometry in presence of Z-Asp-2,6-dichlorobenzoyloxymethylketone; type: functional
U-251 [26] = assay: Increase in heme level in human U251 cells at 100 uM after 48 hrs by Western blot relative to control; type: functional
U-251 [27] = assay: Inhibition of 26S proteasome activity in human U251 cells at 0.5 mM after 24 hrs; type: cell-based
U-251 [28] = assay: Increase in ROS production in human U251 cells at 100 uM after 4 hrs by FACS in presence of N-acetyl-L-cysteine; type: functional, cell-based
U-251 [29] = assay: Increase in ROS production in human U251 cells at 100 uM after 4 hrs by FACS; type: functional, cell-based
U-251 [30] = assay: Increase in protoporphyrin 9 levels in human U251 cells at 100 uM after 24 hrs relative to control; type: functional
U-251 [31] = assay: Antiproliferative activity against human U251 cells assessed as PpIX release pretreated 72 hrs before 360-410 nm light photosensitization measured after 48 hrs by Hoechst test; type: functional, cell-based
U-251 [32] = assay: Increase in p-c-Jun expression levels in human U251 cells at 100 uM after 2 hrs by Western blot relative to control; type: functional
U-251 [33] = assay: Induction of histone H4 hyperacetylation in human U251 cells at 100 uM after 24 hrs by Western blot relative to control; type: functional
U-251 [34] = assay: Increase in protoporphyrin 9 levels in human U251 cells at 200 uM after 24 hrs relative to control; type: functional
U-251 [35] = assay: Increase in pH2AX expression levels in human U251 cells at 100 uM after 2 hrs by Western blot; type: functional, cell-based
U-251 [36] = assay: Reduction in c-myc expression levels in human U251 cells at 100 uM after 4 hrs by Western blot; type: functional, cell-based
U-251 [37] = assay: Inhibition of 26S proteasome activity in human U251 cells at 100 uM after 24 hrs relative to control; type: cell-based
U-251 [38] = assay: Increase in ROS production in human U251 cells at 50 uM after 4 hrs by FACS flow cytometry; type: functional
U-251 [39] = assay: Increase in pERK expression levels in human U251 cells at 100 uM after 2 hrs by Western blot relative to control; type: functional
U-251 [40] = assay: Increase in CDKp21 expression levels in human U251 cells at 100 uM after 4 hrs by Western blot; type: functional, cell-based
U-251 [41] = assay: Antiproliferative activity against human U251 cells assessed as PpIX release after 72 hrs by Hoechst test; type: functional, cell-based; details: U-251, 72 h
U-251 [42] = assay: Inhibition of 26S proteasome activity in human U251 cells at 1 mM after 48 hrs; type: cell-based
U-251 [43] = assay: Increase in CDKp21 expression levels in human U251 cells at 100 uM after 24 hrs by Western blot; type: functional, cell-based

Compound	Activity (U-251 [1]) [%]	Activity (U-251 [2]) [%]	Activity (U-251 [3]) [%]	Activity (U-251 [6]) [%]	viability at 100 µM (U-251 [7]) [%]	Activity (U-251 [8])	viability at 100 µM (U-251 [9]) [%]	pIC50 (MCF7)	pIC50 (U-251 [10])	viability at 100 µM (U-251 [12]) [%]	Activity (U-251 [14]) [%]	pIC50 [16]	Activity (U-251 [17]) [%]	residual activity (U-251 [18]) [%]	fold change (FC) (U-251 [19])	Activity (U-251 [21]) [%]	Activity (U-251 [22]) [%]	residual activity (U-251 [24]) [%]	pIC50 (HL-60)	Activity (U-251 [25]) [%]	also measured
CC(C)(C)C(=O)OCOC(=O)CCC(=O)CN.Cl	9	5	15	2	67	inactive	82	4.19	4.03	77	4	4.21	2	54	2	17	9	101	4.36	11	Activity (U-251 [4]): inactive; fold change (FC) (U-251 [5]): 3; Activity (U-251 [11]): inactive; Activity (U-251 [13]): Active; Activity (U-251 [15]): Active; Activity (U-251 [20]): Active; Activity (U-251 [23]): Active
CCCC(=O)O [BUTYRIC ACID]									3.03					74				80			Activity (U-251 [26]): 126%; Activity (U-251 [27]): Active; Activity (U-251 [28]): Active; Activity (U-251 [29]): Active
CCCC(=O)OCOC(=O)CCC(=O)CN.Cl	19	5	17	4	47	Active	80	4.13	4.05	81	2	4.08	2	56	8	15	17	64	4.24	11	fold change (FC) (U-251 [30]): 6.6; pIC50 (U-251 [31]): 4.23; fold change (FC) (U-251 [4]): 1.4; Activity (U-251 [26]): 260%; fold change (FC) (U-251 [32]): 9.5; fold change (FC) (U-251 [5]): 2.4; fold change (FC) (U-251 [33]): 2; fold change (FC) (U-251 [34]): 12.4; Activity (U-251 [35]): Active; Activity (U-251 [36]): Active; inhibition (U-251 [37]): 40%; Activity (U-251 [11]): Active; Activity (U-251 [13]): Active; Activity (U-251 [38]): 68%; Activity (U-251 [15]): Active; fold change (FC) (U-251 [39]): 5.4; Activity (U-251 [20]): inactive; Activity (U-251 [23]): Active; Activity (U-251 [40]): Active; pIC50 (U-251 [41]): 4.00
NCC(=O)CCC(=O)O [AMINOLEVULINIC ACID]	7	5	6	2	76		76	2.76	2.57	78	3	2.46	2	100	2	17	14	102	2.80	17	fold change (FC) (U-251 [30]): 3; pIC50 (U-251 [31]): 2.57; Activity (U-251 [26]): 130%; Activity (U-251 [42]): Active; fold change (FC) (U-251 [34]): 7.2; Activity (U-251 [28]): inactive; Activity (U-251 [15]): Active; Activity (U-251 [29]): Active; Activity (U-251 [20]): Active; pIC50 (U-251 [41]): 2.57
CC(OC(=O)CCC(=O)CN)OC(=O)C(C)(C)C (centres undefined)									2.69										2.86		
CCCC(CCC)C(=O)OC(C)OC(=O)CCC(=O)CN (centres undefined)									2.98										3.11		
CCCC(CCC)C(=O)OCOC(=O)CCC(=O)CN									4.19												
CCCC(=O)OCOP(=O)(OCC)OCC [(DIETHOXYPHOSPHORYLOXY)METHYL BUTYRATE]									4.05												Activity (U-251 [34]): inactive; Activity (U-251 [37]): Active; Activity (U-251 [11]): Active
CCCC(=O)OC(C)OC(=O)CCC(=O)CN.Cl (centres undefined)	10	3	4	2	80	Active	88	3.15	3.14	86	3	3.09	3	117	2	8	6	146	3.56	7	fold change (FC) (U-251 [30]): 5; pIC50 (U-251 [31]): 3.29; fold change (FC) (U-251 [4]): 1.4; Activity (U-251 [43]): Active; fold change (FC) (U-251 [34]): 7.8; Activity (U-251 [38]): Active; pIC50 (U-251 [41]): 3.12
